Assay results as given in patent publication US7241785B2, “Five-membered heterocyclic alkanoic acid derivative” (Takeda Pharmaceutical Company Limited, priority 2001, dated 2007).

Tests used:
[1] = target: T1, PPARγ-RXRα heterodimer (Homo sapiens, UniProt P37231); experiment: PPARγ-RXRα heterodimer ligand activity (luciferase reporter, PPARγ:RXRα:4ERPP/CHO-K1 cells); assay type: cell-based; details: concentration for 50% of maximum fold induction of luciferase, 48 hrs
T1 construct: expressed in transfected cells
T1 sequence (P37231 1-477 isoform P37231-2): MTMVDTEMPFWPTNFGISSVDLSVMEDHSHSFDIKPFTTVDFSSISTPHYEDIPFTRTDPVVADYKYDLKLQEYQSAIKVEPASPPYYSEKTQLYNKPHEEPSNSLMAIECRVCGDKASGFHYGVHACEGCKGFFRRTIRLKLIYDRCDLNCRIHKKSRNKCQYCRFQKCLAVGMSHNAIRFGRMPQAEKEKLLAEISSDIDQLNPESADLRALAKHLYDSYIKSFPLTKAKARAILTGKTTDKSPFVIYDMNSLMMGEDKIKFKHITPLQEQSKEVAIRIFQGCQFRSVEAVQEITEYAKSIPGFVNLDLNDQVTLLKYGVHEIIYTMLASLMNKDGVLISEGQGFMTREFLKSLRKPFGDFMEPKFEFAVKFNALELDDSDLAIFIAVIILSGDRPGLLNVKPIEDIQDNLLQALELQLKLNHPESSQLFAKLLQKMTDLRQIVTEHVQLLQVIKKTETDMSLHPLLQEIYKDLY
T1 sequence (P19793 1-462 partner): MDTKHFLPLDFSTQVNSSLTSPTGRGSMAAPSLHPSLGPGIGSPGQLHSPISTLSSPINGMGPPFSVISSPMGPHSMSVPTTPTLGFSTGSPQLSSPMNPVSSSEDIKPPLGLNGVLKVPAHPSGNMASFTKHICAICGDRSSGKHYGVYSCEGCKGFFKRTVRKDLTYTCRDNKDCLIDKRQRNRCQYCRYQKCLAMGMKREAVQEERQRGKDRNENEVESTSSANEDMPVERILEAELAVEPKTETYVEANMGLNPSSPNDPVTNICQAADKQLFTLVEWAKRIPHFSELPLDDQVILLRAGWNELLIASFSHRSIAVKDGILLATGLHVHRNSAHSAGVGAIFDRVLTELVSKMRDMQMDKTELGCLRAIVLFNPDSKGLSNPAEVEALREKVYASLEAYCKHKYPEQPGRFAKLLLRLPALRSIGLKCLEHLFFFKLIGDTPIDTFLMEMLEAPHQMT
Procedure: (PPARγ-RXRα Heterodimer Ligand Activity)
PPARγ:RXRα:4ERPP/CHO-K1 cells obtained in Reference Example 8a were cultured in HAM F12 medium (manufactured by NISSUI SEIYAKU) containing 10% fetal bovine serum [manufactured by Life Technologies, Inc., USA], seeded in a 96-well white plate [manufactured by Corning Coster Corporation, USA] at the density of 2×10^4 cells/well and cultured in a CO2 gas incubator at 37° C. overnight.
After washing the 96-well white plate with PBS (Phosphate-buffered saline), 90 μl of HAM F12 medium containing 0.1% fatty acid-free bovine serum albumin (BSA) and 10 μl of test compound were added, and the cells were cultured in a CO2 gas incubator at 37° C. for 48 hrs. The medium was removed and 40 μl of PicaGene 7.5 (manufactured by Wako Pure Chemical Industries, Ltd.) was added. After stirring, the luciferase activity was determined using Lumistar [manufactured by BMG Labtechnologies GmbH, Germany].
The fold induction was calculated from the luciferase activity of each test compound when the luciferase activity of the non-treatment group is taken as 1. The values of the test compound concentration and the fold induction were analyzed using PRISM 2.01 (produced by GraphPad Software Inc. USA) to calculate the EC50 values, the effective concentration of a test compound for 50% of the maximum fold induction.
Introduction of Human PPARγ- and RXRα-Expression Plasmid and Reporter Plasmid into CHO-K1 Cell and Establishment of Expressed Cell
After a CHO-K1 cell cultured in a tissue culture flask (750 ml) (produced by Corning Costar Corporation, USA) containing HAM F12 medium (produced by NISSUI SEIYAKU) supplemented with 10% fetal bovine serum (produced by Life Technologies, Inc., USA) was scraped by treating with 0.5 g/L trypsin-0.2 g/L EDTA (ethylenediaminetetraacetic acid) (produced by Life Technologies, Inc., USA), the cell was washed with PBS (phosphate-buffered saline) (produced by Life Technologies, Inc., USA), centrifuged (1000 rpm, 5 minutes), and then suspended in PBS. Subsequently, a DNA was introduced into the cell under the conditions shown below using GENE PULSER (produced by Bio-Rad Laboratories, USA).
Namely, to a cuvette having a 0.4 cm gap, added were 8×10^6 cells and 10 μg of plasmid pVgRXR2-hPPARγ obtained in Reference Example 7a and 10 μg of reporter plasmid pGL3-4ERPP-TK neo obtained in Reference Example 4a, which was subjected to electroporation at the voltage of 0.25 kV under the capacitance of 960 μF. Subsequently, the cell was transferred into a HAM F12 medium containing 10% fetal bovine serum and cultured for 24 hours and then the cell was scraped again and centrifuged, and then suspended in HAM F12 medium containing 10% fetal bovine serum supplemented with 500 μg/ml of GENETICIN, (produced by Life Technologies, Inc., USA) and 250 μg /ml of ZEOCIN (produced by Invitrogen, USA). The obtained suspension was diluted to the density of 10^4 cells/ml and inoculated to a 96-well plate (produced by Corning Costar Corporation, USA), which was cultured in a CO2 gas incubator at 37° C., whereby obtaining a GENETICIN- and ZEOCIN-resistant transformant.
Subsequently, after the transformant cell line thus obtained was cultured in a 24-well plate (produced by Corning Costar Corporation, USA), selected was a cell line in which the luciferase was expressed and induced, i.e., PPARγ:RXRα:4ERPP/CHO-K1 cell by the addition of 10 μM pioglitazone hydrochloride.

[2] = test system: KKA^y mice; experiment: Hypoglycemic and hypolipidemic (hypotriglyceridemic) actions in mice; assay type: in vivo; details: Mus musculus, po, 96 h, 0.01% in powdery diet, four days
Procedure: Hypoglycemic and Hypolipidemic (Hypotriglyceridemic) Actions in Mice
Test compounds were mixed in a powdery diet (CE-2, Japan Clea) at the concentration of 0.01%, and freely given to KKA^y mice (11 to 12 weeks old, 5 mice per group), a model of type 2 diabetes mellitus, for four days. During this period, water was given freely. Blood was sampled from orbital venous plexus, and glucose and triglyceride levels in plasma separated from the blood were determined enzymatically using L type Wako Glu2 (Wako Pure Chemical Industries, Ltd.) or L type Wako TG.H (Wako Pure Chemical Industries, Ltd.), respectively.
In the Table, “hypoglycemic action (%)” represents a percent reduction (%) of the blood glucose level in the treatment group when the blood glucose level in the non-treatment group is taken as 100%. In addition, “hypolipidemic action (%)” represents a percent reduction (%) of the blood triglyceride level in the treatment group when the blood triglyceride level in the non-treatment group is taken as 100%.

[3] = test system: KKA^y mice; experiment: Total cholesterol lowering action and plasma anti-arteriosclerosis index-enhancing action in mice; assay type: in vivo; details: Mus musculus, po, 96 h, 0.01% in powdery diet, four days; for change in vivo at 0.01 % in diet: percent increase of index [(HDL cholesterol/total cholesterol)×100] vs non-treatment group (100%); for inhibition in vivo at 0.01 % in diet: percent reduction of total cholesterol level vs non-treatment group (100%)
Procedure: Total Cholesterol Lowering Action and Plasma Anti-Arteriosclerosis Index-Enhancing Action in Mice
Test compounds were mixed in a powdery diet (CE-2, Japan Clea concentration of 0.01%, and freely given to KKA^y mice (11 to 12 weeks old, 5 mice per group), a model of type 2 diabetes mellitus, for four days. During this period, water was given freely. Blood was sampled from orbital venous plexus, and components in plasma separated from the blood were determined. Total cholesterol levels were determined using L type Wako Cholesterol (Wako Pure Chemical Industries, Ltd.). Precipitation reagent for HDL cholesterol was added to a part of the plasma to precipitate non-HDL lipoprotein, and cholesterol (HDL cholesterol) in the resulting supernatant was determined. The plasma anti-arteriosclerosis index [(HDL cholesterol/total cholesterol)×100] was calculated using these cholesterol levels.
In the Table, “total cholesterol lowering action (%)” represents a percent reduction (%) of the total cholesterol level in the treatment group when the total cholesterol level in the non-treatment group is taken as 100%. In addition, “plasma anti-arteriosclerosis index-enhancing action (%)” represents a percent increase (%) of the plasma anti-arteriosclerosis index in the treatment group when the plasma anti-arteriosclerosis index in the non-treatment group is taken as 100%.

[4] = percent reduction of blood glucose level vs non-treatment group (100%), read-out: Hypoglycemic action (%)
[5] = percent reduction of blood triglyceride level vs non-treatment group (100%), read-out: Hypolipidemic action (%)

| SMILES | melting point [°C] | EC50 [1] [nM] | inhibition in vivo at 0.01 % in diet [2, 4] [%] | inhibition in vivo at 0.01 % in diet [2, 5] [%] | change in vivo at 0.01 % in diet [3] [%] | inhibition in vivo at 0.01 % in diet [3] [%] |
| --- | --- | --- | --- | --- | --- | --- |
| Cc1oc(-c2ccccc2)nc1COc1ccc(Cc2nc(-c3ccccc3)c(CCC(=O)O)o2)cc1 [Example 2, 3-[2-[4-(5-methyl-2-phenyl-4-oxazolylmethoxy)benzyl]-4-phenyl-5-oxazolyl]propionic acid] | 142 to 143 | 3.7 | 45 | 52 | – | – |
| Cc1oc(-c2ccccc2)nc1COc1ccc(Cc2nc(-c3ccccc3)c(CCC(=O)O)[nH]2)cc1 [Example 4, 3-[2-[4-(5-methyl-2-phenyl-4-oxazolylmethoxy)benzyl]-4-phenyl-1H-imidazol-5-yl]propionic acid] | 193 to 196 | 16 | – | – | – | – |
| Cc1oc(-c2ccccc2)nc1COc1ccc(Cc2nc(CCC(=O)O)c(-c3ccccc3)o2)cc1 [Example 6, 3-[2-[4-(5-methyl-2-phenyl-4-oxazolylmethoxy)benzyl]-5-phenyl-4-oxazolyl]propionic acid] | 136 to 137 | 3.6 | 46 | 62 | 17 | 27 |
| Cc1oc(-c2ccccc2)nc1COc1ccc(Cc2nc(CCC(=O)O)c(-c3ccccc3)s2)cc1 [Example 8, 3-[2-[4-(5-methyl-2-phenyl-4-oxazolylmethoxy)benzyl]-5-phenyl-4-thiazolyl]propionic acid] | 119 to 120 | 16 | 43 | 56 | 11 | 17 |
| Cc1oc(-c2ccccc2)nc1COc1ccc(COc2nn(C)cc2CC(=O)O)cn1 [Example 26, [1-methyl-3-[6-(5-methyl-2-phenyl-4-oxazolylmethoxy)-3-pyridylmethoxy]-1H-pyrazol-4-yl]acetic acid] | 139 to 140 | 37 | 56 | 53 | 14 | 14 |
| Cc1oc(-c2ccccc2)nc1COc1ccc(COc2nn(Cc3ccccc3)cc2CC(=O)O)cn1 [Example 40, [1-benzyl-3-[6-(5-methyl-2-phenyl-4-oxazolylmethoxy)-3-pyridylmethoxy]-1H-pyrazol-4-yl]acetic acid] | 87 to 88 | – | 52 | 76 | 22 | 13 |
| Cc1oc(-c2ccccc2)nc1COc1ccc(COc2nn(-c3ccccc3)cc2CC(=O)O)cc1 [Example 50, [3-[4-(5-methyl-2-phenyl-4-oxazolylmethoxy)benzyloxy]-1-phenyl-1H-pyrazol-4-yl]acetic acid] | 151 to 152 | 3.9 | 46 | 81 | 12 | 8 |
| COc1cc(COc2nn(-c3ccccc3)cc2CC(=O)O)ccc1OCc1nc(-c2ccccc2)oc1C [Example 52, [3-[3-methoxy-4-(5-methyl-2-phenyl-4-oxazolylmethoxy)benzyloxy]-1-phenyl-1H-pyrazol-4-yl]acetic acid] | 147 to 148 | 0.38 | 50 | 82 | 16 | 22 |
| Cc1oc(-c2ccccc2)nc1COc1ccc(COc2nn(-c3ccccc3)cc2CC(=O)O)cn1 [Example 54, [3-[6-(5-methyl-2-phenyl-4-oxazolylmethoxy)-3-pyridylmethoxy]-1-phenyl-1H-pyrazol-4-yl]acetic acid] | 164 to 165 | 0.64 | 52 | 89 | 14 | 18 |
| Cc1oc(-c2ccccc2)nc1COc1ccc(CCc2oc(-c3ccccc3)nc2CC(=O)O)cc1 [Example 64, [5-[2-[4-(5-methyl-2-phenyl-4-oxazolyl)methoxyphenyl]ethyl]-2-phenyl-4-oxazolyl]acetic acid] | 180 to 181 | 6.9 | – | – | – | – |
